Test results: patent US20130072519A1, “2-PHENYL BENZOYLAMIDES” (priority 2010, published 2013)

Test system: Apolipoprotein B Secretion from HepG2 Cells
Test: Inhibition of Apolipoprotein B secretion from HepG2 cells (ELISA)
Assay type: cell-based, human
Conditions: HepG2 cells, 22-24 hours incubation, ApoB ELISA; Low/High IC50 columns give the 95% confidence interval
Experimental: Inhibition of Apolipoprotein B Secretion from HepG2 Cells
To assess the inhibitory effect of the compounds of the invention on ApoB production, an endogenously ApoB producing cell line, HEPG2, was implemented in an in vitro ELISA assay. HEPG2 cells are plated at 25,000 per well (96-well plates) in media consisting of DMEM Low Glucose, 1% NEAA (non-essential amino acids), 10% FBS (heat inactivated), 1% L-Glutamine, and 1% Antimycotic-Antibiotic and incubated for 16-18 hours at 37° C. and 5% CO2. After the 16-18 hour incubation, a 12 point half-log serial of the inhibitor (1000 nM-0.003 nM) is prepared, and 1.5 ul of the serial dilution is added to HEPG2 cells, which have had their media decanted and replaced with 148 ul of fresh media, and the cells are incubated for 22-24 hours at 37° C. and 5% CO2. Two and a half hours before the 22-24 hour incubation period is completed, Nunc Maxisorp plates are coated with 100 ul of primary (coating) antibody (goat anti-apoB), diluting to a ratio of 1:1000 in 1% Carbonate-Bicarbonate Coating Buffer and incubated for at least 2 hours at room temperature before the primary antibody is decanted and the wells of the microplate are washed with 200 ul of washing buffer (1% PBS, 0.05% Tween20). Next, 200 ul of blocking buffer (1% PBS, 1:500 Western Block, 5 mg/ml BSA) is added to the wells of the microplate, and incubated for at least 30 mins. Following the 22-24 hours incubation period, cell plates are removed from the incubator, 20 ul of supernatant from each well is aspirated, added to a corresponding well in 96 well plate containing 140 ul of diluent (1:2-Blocking Buffer: Washing Buffer), and mixed. Then, 120 ul is aspirated from the dilutent-supernatant plate, added to the blocked Nunc Maxisorp 96 well plate, and placed at room temperature on a shaker to mix for at least 2 hours. The secondary (capture) antibody (mouse anti-human apoB) is prepared at a ratio of 1:4000, and the detection antibody (goat anti-mouse HRP conjugated antibody) at a ratio of 1:10,000. For each antibody, 100 ul is added to each well of the microplate and the microplate is incubated at room temperature for 2 hours, washing the microplates between each antibody addition. Colorimetric development is achieved by adding 50 ul of TMB reagent to each well, incubating for 5 mins at room temperature, then adding 50 ul of 2M Sulfuric Acid to each well. Absorbance at 450 nm is monitored in an Envision plate reader to measure the amount of ApoB formed.
Results reported as average IC50, low and high IC50 range (95% confidence interval).

IC50 | SMILES
10.1 nM | CCOC(=O)C1(COC(=O)Cc2ccc(NC(=O)c3ccccc3-c3ccc(C(F)(F)F)cc3)c(C(=O)N(C)C)c2)OC(=O)c2ccccc21 (centres unmarked) [Example 31]
45.5 nM | CCOC(=O)C1(COC(=O)Cc2ccc(NC(=O)c3ccccc3-c3ccc(C(F)(F)F)cc3)c(C(=O)N(C)C)c2)OC(=O)c2ccccc21 (centres unmarked) [Example 32]
5.54 nM | COC(=O)C1(COC(=O)Cc2ccc(NC(=O)c3ccccc3-c3ccc(C(F)(F)F)cc3)c(C(=O)N(C)C)c2)CCc2ccccc21 (centres unmarked) [Example 34]
0.46 nM | CCOC(=O)C1(COC(=O)Cc2ccc(NC(=O)c3ccccc3-c3ccc(C(F)(F)F)cc3)c(C(=O)N(C)C)c2)CCc2ccccc21 (centres unmarked) [Example 35]
4.6 nM | CCOC(=O)C1(COC(=O)Cc2ccc(NC(=O)c3ccccc3-c3ccc(C(F)(F)F)cc3)c(C(=O)N(C)C)c2)CCc2ccccc21 (centres unmarked) [Example 36]
19.9 nM | CCOC(=O)C1(COC(=O)Cc2ccc(NC(=O)c3ccccc3-c3ccc(C(F)(F)F)cc3)c(C(=O)N(C)C)c2)CCc2cccnc21 (centres unmarked) [Example 38]
2.34 nM | CCOC(=O)C1(COC(=O)Cc2ccc(NC(=O)c3ccccc3-c3ccc(C(F)(F)F)cc3)c(C(=O)N(C)C)c2)CCc2cccnc21 (centres unmarked) [Example 39]

SMILES | IC50
CCOC(=O)C1(COC(=O)Cc2ccc(NC(=O)c3cccc(C)c3-c3ccc(C(F)(F)F)cc3)c(C(=O)N(C)C)c2)c2ncccc2C(=O)N1CC (centres unmarked) [Example 47, Ethyl 7-({2-[3-(Dimethylcarbamoyl)-4-({[6-methyl-4′-(trifluoromethyl)biphenyl-2-yl]carbonyl}amino)phenyl]acetoxy}methyl)-6-ethyl-5-oxo-6,7-dihydro-5H-pyrrolo[3,4-b]pyridine-7-carboxylate] | 7.56 nM
CCOC(=O)C1(COC(=O)Cc2ccc(NC(=O)c3cccc(C)c3-c3ccc(C(F)(F)F)cc3)c(C(=O)N(C)C)c2)c2ncccc2C(=O)N1CC (centres unmarked) [Example 48, Ethyl 7-({2-[3-(Dimethylcarbamoyl)-4-({[6-methyl-4′-(trifluoromethyl)biphenyl-2-yl]carbonyl}amino)phenyl]acetoxy}methyl)-6-ethyl-5-oxo-6,7-dihydro-5H-pyrrolo[3,4-b]pyridine-7-carboxylate] | 0.203 nM

Same assay, conditions: Homo sapiens, HepG2, HepG2 cells, 22-24 hours incubation, ApoB ELISA; Low/High IC50 columns give the 95% confidence interval

SMILES | IC50
COC(=O)C1(COC(=O)Cc2ccc(NC(=O)c3ccccc3-c3ccc(C(F)(F)F)cc3)c(C(=O)N(C)C)c2)CCc2ccccc21 (centres unmarked) [Example 33] | 6.5 nM
CCOC(=O)C1(COC(=O)Cc2ccc(NC(=O)c3ccccc3-c3ccc(C(F)(F)F)cc3)c(C)c2)OC(=O)c2ccccc21 (centres unmarked) [Example 40] | 159 nM
CCOC(=O)C1(COC(=O)Cc2ccc(NC(=O)c3cccc(C)c3-c3ccc(OC(C)C)cc3)c(C(=O)N(C)C)c2)c2ccccc2C(=O)N1C (centres unmarked) [Example 51, ethyl 1-({2-[3-(dimethylcarbamoyl)-4-{[(4′-isopropoxy-6-methylbiphenyl-2-yl)carbonyl]amino}phenyl]acetoxy}methyl)-2-methyl-3-oxoisoindoline-1-carboxylate] | 0.159 nM
CCOC(=O)C1(COC(=O)Cc2ccc(NC(=O)c3cccc(C)c3-c3ccc(C(C)C)cc3)c(C(=O)N(C)C)c2)c2ccccc2C(=O)N1C (centres unmarked) [Example 53] | 0.242 nM
CCOC(=O)C1(COC(=O)Cc2ccc(NC(=O)c3ccccc3-c3ccc(OC(C)C)cc3)c(C(=O)N(C)C)c2)c2ccccc2C(=O)N1C (centres unmarked) [Example 54, ethyl 1-({2-[3-(dimethylcarbamoyl)-4-{[(4′-isopropoxybiphenyl-2-yl)carbonyl]amino}phenyl]acetoxy}methyl)-2-methyl-3-oxoisoindoline-1-carboxylate] | 0.124 nM
CCOC(=O)C1(COC(=O)Cc2ccc(NC(=O)c3ccc(C(F)(F)F)cc3-c3ccc(C(F)(F)F)cc3)c(C(=O)N(C)C)c2)c2ccccc2C(=O)N1C (centres unmarked) [Example 55, ethyll-({2-[4-({[4′,5-bis(trifluoromethyl)biphenyl-2-yl]carbonyl}amino)-3-(dimethylcarbamoyl)phenyl]acetoxy}methyl)-2-methyl-3-oxoisoindoline-1-carboxylate] | 0.154 nM
CCOC(=O)C1(COC(=O)Cc2ccc(NC(=O)c3cccc(C)c3-c3ccc(OC(C)C)cc3)c(C(=O)N(C)C)c2)CCc2cccnc21 (centres unmarked) [Example 57, ethyl 7-({2-[3-(dimethylcarbamoyl)-4-{[(4′-isopropoxy-6-methylbiphenyl-2-yl)carbonyl]amino}phenyl]acetoxy}methyl)-6,7-dihydro-5H-cyclopenta[b]pyridine-7-carboxylate] | 1.37 nM
CCOC(=O)C1(COC(=O)Cc2ccc(NC(=O)c3ccc(C(F)(F)F)cc3-c3ccc(C(F)(F)F)cc3)c(C(=O)N(C)C)c2)CCc2cccnc21 (centres unmarked) [Example 58, ethyl 7-({2-[4-({[4′,5-bis(trifluoromethyl)biphenyl-2-yl]carbonyl}amino)-3-(dimethylcarbamoyl)phenyl]acetoxy}methyl)-6,7-dihydro-5H-cyclopenta[b]pyridine-7-carboxylate] | 7.18 nM
CCOC(=O)[C@]1(COC(=O)Cc2ccc(NC(=O)c3cccc(C)c3-c3ccc(C(F)(F)F)cc3)c(C(=O)N3CCCCC3)c2)c2ccccc2C(=O)N1C [Example 62, ethyl (1R)-2-methyl-1-({2-[4-({[6-methyl-4′-(trifluoromethyl)biphenyl-2-yl]carbonyl}amino)-3-(piperidin-1-ylcarbonyl)phenyl]acetoxy}methyl)-3-oxoisoindoline-1-carboxylate] | 1.17 nM
CCOC(=O)[C@]1(COC(=O)Cc2ccc(NC(=O)c3cccc(OC)c3-c3ccc(OC(C)C)cc3)c(C(=O)N(C)C)c2)c2ccccc2C(=O)N1C [Example 63, ethyl (1R)-1-({2-[3-(dimethylcarbamoyl)-4-{[(4′-isopropoxy-6-methoxybiphenyl-2-yl)carbonyl]amino}phenyl]acetoxy}methyl)-2-methyl-3-oxoisoindoline-1-carboxylate] | 0.119 nM
CCOC(=O)[C@]1(COC(=O)Cc2ccc(NC(=O)c3cccc(OC)c3-c3ccccc3)c(C(=O)N(C)C)c2)c2ccccc2C(=O)N1C [Example 64, ethyl (1R)-1-({2-[3-(dimethylcarbamoyl)-4-{[(6-methoxybiphenyl-2-yl)carbonyl]amino}phenyl]acetoxy}methyl)-2-methyl-3-oxoisoindoline-1-carboxylate] | 0.536 nM
CCOC(=O)[C@]1(COC(=O)Cc2ccc(NC(=O)c3ccccc3-c3ccc(C(C)(C)C)cc3)c(C(=O)N(C)C)c2)c2ccccc2C(=O)N1C [Example 66, ethyl (1R)-1-({2-[4-{[(4′-tert-butylbiphenyl-2-yl)carbonyl]amino}-3-(dimethylcarbamoyl)phenyl]acetoxy}methyl)-2-methyl-3-oxoisoindoline-1-carboxylate] | 0.206 nM
CCOC(=O)[C@]1(COC(=O)Cc2ccc(NC(=O)c3cccc(C)c3-c3ccc(C(C)(C)C)cc3)c(C(=O)N(C)C)c2)c2ccccc2C(=O)N1C [Example 67, ethyl (1R)-1-({2-[4-{[(4′-tert-butyl-6-methylbiphenyl-2-yl)carbonyl]amino}-3-(dimethylcarbamoyl)phenyl]acetoxy}methyl)-2-methyl-3-oxoisoindoline-1-carboxylate] | 0.244 nM
CCOC(=O)[C@]1(COC(=O)Cc2ccc(NC(=O)c3ccc(C)cc3-c3ccc(C(C)(C)C)cc3)c(C(=O)N(C)C)c2)c2ccccc2C(=O)N1C [Example 68, ethyl (1R)-1-({2-[4-{[(4′-tert-butyl-5-methylbiphenyl-2-yl)carbonyl]amino}-3-(dimethylcarbamoyl)phenyl]acetoxy}methyl)-2-methyl-3-oxoisoindoline-1-carboxylate] | 0.178 nM
